The values below come from patent US20230192657A1, “1,2,4-TRIAZOLINONE CB1 INHIBITORS” (Goldfinch Bio, Inc., priority 2020, published 2023).

CB1 receptor, sequence (P21554 whole entry): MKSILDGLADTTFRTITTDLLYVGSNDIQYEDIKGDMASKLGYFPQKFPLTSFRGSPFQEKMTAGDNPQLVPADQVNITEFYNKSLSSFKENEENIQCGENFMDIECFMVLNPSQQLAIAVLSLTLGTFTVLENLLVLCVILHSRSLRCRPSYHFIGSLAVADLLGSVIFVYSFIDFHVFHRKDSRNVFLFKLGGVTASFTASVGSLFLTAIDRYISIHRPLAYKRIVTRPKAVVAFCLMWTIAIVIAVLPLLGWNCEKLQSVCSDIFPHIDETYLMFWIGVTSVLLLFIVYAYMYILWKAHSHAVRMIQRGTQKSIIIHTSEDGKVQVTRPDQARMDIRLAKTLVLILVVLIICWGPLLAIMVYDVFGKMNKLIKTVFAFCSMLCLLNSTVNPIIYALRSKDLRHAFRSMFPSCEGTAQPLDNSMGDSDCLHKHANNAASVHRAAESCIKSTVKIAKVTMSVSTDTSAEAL

The experiment concerns the target CB1 receptor (Homo sapiens, UniProt P21554). Description: CB1 cAMP Antagonist Assay (LANCE Ultra cAMP kit). As to conditions: Flp-In CHO cells stably expressing the CB1 receptor; forskolin and CP55940 agonist at EC90; cAMP FRET readout. The format is cell-based. The source says:
CB1 cAMP Antagonist Assay
LANCE Ultra cAMP kit (Perkin Elmer) was used to quantitate the amount of 3′,5′-cyclic adenosine monophosphate (cAMP) produced in Flp-In CHO (Invitrogen) cells stably expressing the CB1 receptor.
Forskolin was initially titrated to determine the response of the cells. The EC90 of forskolin was used for compound testing. CP55940 was titrated and used with EC90 of forskolin to determine the level of agonist stimulation. EC90 of the agonist was used for subsequent compound testing.
Forskolin (Sigma), CP55940 (Cayman Chemicals), and AM251 (MCE) were diluted in 100% DMSO, starting at 100 mM, 1 mM, and 1 mM respectively, in 3-fold serial dilutions. Test compounds were diluted in 100% DMSO starting from 10 mM, 3-fold dilutions. The cAMP assay buffer contains 1x Hank’s Buffered Saline Solution with Ca^2+ and Mg^2+ (Invitrogen), 5.3 mM HEPES (Invitrogen), 0.05% BSA, 0.5 mM IBMX (Sigma).
For all assays, cells were harvested, counted, and diluted in cAMP assay buffer to 1× 10^5 cells/mL. Only cells with viability >85% were used for the assay. Cells were seeded at 1000 cells/well in 384-well plates and 10 nL/well AM251 or test compound was added and incubated at 37° C. for 10 min. […] To detect the amount of cAMP produced, 5 µL of a 100x diluted stock of Eu-cAMP tracer and 5 µL of 200x diluted stock of Ulight-anti-cAMP were added to each well, and the plate incubated at 25° C. for 15 min. The FRET signal was read using an EnVision microplate reader (λex=320 nm, λem=615 nm and 665 nm).
The IC50 is determined by fitting the percentage of inhibition as a function of compound concentrations with the Hill equation, using a 4-parameter fit in either XLfit or GraphPad Prism.
One may read the IC50 as the point on the concentration scale where inhibition reaches its midpoint. The low end stands for greater potency, the high end for weaker potency. `NC(=O)Cn1c(N2C[C@]3(CCc4ccccc43)C(c3ccc(Cl)cc3)=N2)nn(Cc2ccc(Cl)cc2)c1=O` [Compound 122, 2-[3-[(1R)-3-(4-chlorophenyl)-1,2,3,5-tetrahydrospiro[indene-1,4-pyrazol]-1-yl]-1-[(4-chlorophenyl)methyl]-5-oxo-4,5-dihydro-1H-1,2,4-triazol-4-yl]acetamide] displayed a half-inhibitory concentration (IC50) of 100 to 1000 nM. Then `NC(=O)Cn1c(N2C[C@]3(CCc4ccccc43)C(c3ccc(Cl)cc3)=N2)nn(-c2ccc(Cl)cc2)c1=O` [Compound 124, 2-[1-(4-chlorophenyl)-3-[(1R)-3-(4-chlorophenyl)-1,2,3,5-tetrahydrospiro[indene-1,4-pyrazol]-1-yl]-5-oxo-4,5-dihydro-1H-1,2,4-triazol-4-yl]acetamide], with 100 to 1000 nM; and `NC(=O)Cn1c(N2C[C@@]3(CCc4ccccc43)C(c3ccc(Cl)cc3)=N2)nn(Cc2ccc(Cl)cc2)c1=O` [Compound 125, 2-[3-[(1S)-3-(4-chlorophenyl)-1,2,3,5-tetrahydrospiro[indene-1,4-pyrazol]-1-yl]-1-[(4-chlorophenyl)methyl]-5-oxo-4,5-dihydro-1H-1,2,4-triazol-4-yl]acetamide], with 1000 to 5000 nM; and `NC(=O)CCn1c(N2C[C@]3(CCc4ccccc43)C(c3ccc(Cl)cc3)=N2)nn(-c2ccc(Cl)cc2)c1=O` [Compound 126, 3-[1-(4-chlorophenyl)-3-[(1R)-3-(4-chlorophenyl)-1,2,3,5-tetrahydrospiro[indene-1,4-pyrazol]-1-yl]-5-oxo-4,5-dihydro-1H-1,2,4-triazol-4-yl]propanamide], with 100 to 1000 nM. As for `O=C(O)CCn1c(N2C[C@]3(CCc4ccccc43)C(c3ccc(Cl)cc3)=N2)nn(Cc2ccc(Cl)cc2)c1=O` [Compound 127], the figure is above 5000 nM.

`NC(=O)CCn1c(N2C[C@@]3(CCc4ccccc43)C(c3ccc(Cl)cc3)=N2)nn(-c2ccc(Cl)cc2)c1=O` [Compound 128] came in with an IC50 above 5000 nM. As for `O=C(O)CCn1c(N2C[C@]3(CCc4ccccc43)C(c3ccc(Cl)cc3)=N2)nn(-c2ccc(Cl)cc2)c1=O` [Compound 129], the figure is above 5000 nM; as for `O=C(O)CCn1c(N2C[C@@]3(CCc4ccccc43)C(c3ccc(Cl)cc3)=N2)nn(-c2ccc(Cl)cc2)c1=O` [Compound 130], above 5000 nM; as for `O=C(O)CCn1c(N2C[C@@]3(CCc4ccccc43)C(c3ccc(Cl)cc3)=N2)nn(Cc2ccc(Cl)cc2)c1=O` [Compound 131], above 5000 nM.

`Cn1c(N2C[C@@H](c3ccccc3)C(c3ccc(Cl)cc3)=N2)nn(Cc2ccc(CN3CCOCC3)cc2)c1=O` [Compound 134] showed an IC50 of 1000 to 5000 nM. As for `CN1CCN(Cc2ccc(Cn3nc(N4C[C@@H](c5ccccc5)C(c5ccc(Cl)cc5)=N4)n(C)c3=O)cc2)CC1` [Compound 135], the figure is above 5000 nM; as for `Cn1c(N2C[C@H](c3ccccc3)C(c3ccc(Cl)cc3)=N2)nn(Cc2ccc(CN3CCOCC3)cc2)c1=O` [Compound 136, 3-[(4S)-3-(4-chlorophenyl)-4-phenyl-4,5-dihydro-1H-pyrazol-1-yl]-4-methyl-1-([4-[(morpholin-4-yl)methyl]phenyl]methyl)-4,5-dihydro-1H-1,2,4-triazol-5-one], 100 to 1000 nM; as for `CN1CCN(Cc2ccc(Cn3nc(N4C[C@H](c5ccccc5)C(c5ccc(Cl)cc5)=N4)n(C)c3=O)cc2)CC1` [Compound 137], 1000 to 5000 nM. Then `Cn1nc(N2C[C@]3(CCc4ccccc43)C(c3ccc(Cl)cc3)=N2)n(C)c1=O` [Compound 138], with above 5000 nM. The molecule `Cn1nc(N2C[C@@]3(CCc4ccccc43)C(c3ccc(Cl)cc3)=N2)n(C)c1=O` [Compound 141] came in with an IC50 of 1000 to 5000 nM. Then `COc1ccc(Cn2nc(N3C[C@@H](c4ccccc4)C(c4ccc(Cl)cc4)=N3)n(C)c2=O)cc1` [Compound 142], with 1000 to 5000 nM. As for `COc1ccc(Cn2nc(N3C[C@H](c4ccccc4)C(c4ccc(Cl)cc4)=N3)n(C)c2=O)cc1` [Compound 143], the figure is below 100 nM; as for `Cn1c(N2C[C@H](c3ccccc3)C(c3ccc(Cl)cc3)=N2)nn(-c2ccc(CN3CCOCC3)cc2)c1=O` [Compound 144, 3-[(4S)(4-Chlorophenyl)-4-Phenyl-4,5-Dihydro-1H-Pyrazol-1-yl]-4-Methyl-1-[4-[(Morpholin-4-yl)Methyl] Phenyl]-4,5-Dihydro-1H-1,2,4-Triazol-5-One], 100 to 1000 nM; as for `NC(=O)Cn1c(N2C[C@H](c3ccccc3)C(c3ccc(Cl)cc3)=N2)nn(Cc2ccc(CN3CCOCC3)cc2)c1=O` [Compound 145, 2-[3-[(4S)-3-(4-chlorophenyl)-4-phenyl-4,5-dihydro-1H-pyrazol-1-yl]-1-([4-[(morpholin-4-yl)methyl]phenyl]methyl)-5-oxo-4,5-dihydro-1H-1,2,4-triazol-4-yl]acetamide], 100 to 1000 nM. Molecule `Cn1c(N2C[C@@H](c3ccccc3)C(c3ccc(Cl)cc3)=N2)nn(-c2ccc(CN3CCOCC3)cc2)c1=O` [Compound 146] came in with an IC50 above 5000 nM. `NC(=O)Cn1c(N2C[C@@]3(CCc4ccccc43)C(c3ccc(Cl)cc3)=N2)nn(CC2CCCCC2)c1=O` [Compound 147, 2-[3-[(1S)-3-(4-chlorophenyl)-1,2,3,5-tetrahydrospiro[indene-1,4-pyrazol]-1-y1]-1-(cyclohexylmethyl)-5-oxo-4,5-dihydro-1H-1,2,4-triazol-4-yl]acetamide]: the IC50 lay within 1000 to 5000 nM. As for `CN1CCN(Cc2ccc(Cn3nc(N4C[C@H](c5ccccc5)C(c5ccc(Cl)cc5)=N4)n(CC(N)=O)c3=O)cc2)CC1` [Compound 149], the figure is above 5000 nM; as for `C[C@H](c1ccc(Cl)cc1)n1nc(N2C[C@@H](c3ccccc3)C(c3ccc(Cl)cc3)=N2)n(CC(N)=O)c1=O` [Compound 152], 1000 to 5000 nM. As for `C[C@@H](c1ccc(Cl)cc1)n1nc(N2C[C@H](c3ccccc3)C(c3ccc(Cl)cc3)=N2)n(CC(N)=O)c1=O` [Compound 153], the figure is below 100 nM; as for `C[C@H](c1ccc(Cl)cc1)n1nc(N2C[C@H](c3ccccc3)C(c3ccc(Cl)cc3)=N2)n(CC(N)=O)c1=O` [Compound 154], below 100 nM.

For `CC(C(N)=O)n1c(N2CC(c3ccccc3)C(c3ccc(Cl)cc3)=N2)nn(CC2CCCCC2)c1=O` (centres unmarked) [Compound 158, 2-[3-[3-(4-chlorophenyl)-4-phenyl-4,5-dihydropyrazol-1-yl]-1-(cyclohexylmethyl)-5-oxo-1,2,4-triazol-4-yl]propanamide], the IC50 was below 100 nM.

`C[C@@H](C(N)=O)n1c(N2C[C@@H](c3ccccc3)C(c3ccc(Cl)cc3)=N2)nn(Cc2ccc(CN3CCOCC3)cc2)c1=O` [Compound 159] yielded an IC50 of 1000 to 5000 nM. As for `Cn1c(N2CC(c3ccccc3)C(c3ccc(Cl)cc3)=N2)nn(Cc2ccc(C#N)cc2)c1=O` (centres unmarked) [Compound 160], the figure is below 100 nM; as for `Cc1ccc(Cn2nc(N3C[C@@H](c4ccccc4)C(c4ccc(Cl)cc4)=N3)n(C)c2=O)cc1` [Compound 161], 1000 to 5000 nM; as for `Cc1ccc(Cn2nc(N3C[C@H](c4ccccc4)C(c4ccc(Cl)cc4)=N3)n(C)c2=O)cc1` [Compound 163], below 100 nM. As for `C[C@H](C(N)=O)n1c(N2C[C@@H](c3ccccc3)C(c3ccc(Cl)cc3)=N2)nn(Cc2ccc(CN3CCOCC3)cc2)c1=O` [Compound 164], the figure is above 5000 nM. `Cn1c(N2C[C@@H](c3ccccc3)C(c3ccc(Cl)cc3)=N2)nn(Cc2ccccc2)c1=O` [Compound 166]: the IC50 lay in the range of 100 to 1000 nM. `CC(C(N)=O)n1c(N2C[C@H](c3ccccc3)C(c3ccc(Cl)cc3)=N2)nn(Cc2ccc(CN3CCOCC3)cc2)c1=O` (some centres unmarked) [Compound 167]: the IC50 lay in the range of 100 to 1000 nM.

`COC(=O)c1ccc(Cn2nc(N3CC(c4ccccc4)C(c4ccc(Cl)cc4)=N3)n(C)c2=O)cc1` (centres unmarked) [Compound 168] returned an IC50 below 100 nM.

In turn, `Cn1c(N2C[C@H](c3ccccc3)C(c3ccc(Cl)cc3)=N2)nn(Cc2ccccc2)c1=O` [Compound 169] registered an IC50 below 100 nM. `Cn1c(N2CC(c3ccccc3)C(c3ccc(Cl)cc3)=N2)nn(Cc2cccc(C#N)c2)c1=O` (centres unmarked) [Compound 170] returned an IC50 below 100 nM. On to `Cn1c(N2CC(c3ccccc3)C(c3ccc(Cl)cc3)=N2)nn(Cc2ccccc2Cl)c1=O` (centres unmarked) [Compound 171], for which the IC50 is below 100 nM. As for `Cn1c(N2C[C@H](c3ccccc3)C(c3ccc(Cl)cc3)=N2)n[nH]c1=O` [Compound 172, 5-[(4S)-3-(4-chlorophenyl)-4-phenyl-4,5-dihydropyrazol-1-yl]-4-methyl-2H-1,2,4-triazol-3-one], the figure is 1000 to 5000 nM; as for `Cn1c(N2CC(c3ccccc3)C(c3ccc(Cl)cc3)=N2)nn(Cc2ccc(C(=O)NCCO)cc2)c1=O` (centres unmarked) [Compound 173], 1000 to 5000 nM.

Molecule `C[C@H](C(N)=O)n1c(N2C[C@H](c3ccccc3)C(c3ccc(Cl)cc3)=N2)nn(Cc2ccc(Cl)cc2)c1=O` [Compound 174] displayed an IC50 below 100 nM. In the case of `Cc1ccc(Cn2nc(N3CC(c4ccccc4)C(c4ccc(Cl)cc4)=N3)n(C)c2=O)cc1F` (centres unmarked) [Compound 175], the IC50 was below 100 nM.
